From PubChem BioAssay (NCI)
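Assay format: 96-well plates, 48-hour exposure. GI50: concentration for 50% inhibition of growth. TGI: total growth inhibition.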

Assays:
Assay in all cases: inhibition of tumour cell growth, NCI panel, 48 h
HOP-62 NSCLC = system: HOP-62 NSCLC
HOP-92 NSCLC = system: HOP-92 NSCLC
HT29 colon = system: HT29 colon
K-562 leukemia = system: K-562 leukemia
KM12 colon = system: KM12 colon
OVCAR-3 ovarian = system: OVCAR-3 ovarian
OVCAR-5 ovarian = system: OVCAR-5 ovarian
SN12C renal = system: SN12C renal
SNB-19 CNS = system: SNB-19 CNS
SNB-75 CNS = system: SNB-75 CNS
UACC-257 melanoma = system: UACC-257 melanoma

SMILES | TGI (HOP-62 NSCLC) [µM] | TGI (HOP-92 NSCLC) [µM] | TGI (HT29 colon) [µM] | TGI (K-562 leukemia) [µM] | TGI (KM12 colon) [µM] | TGI (OVCAR-3 ovarian) [µM] | TGI (OVCAR-5 ovarian) [µM] | TGI (SN12C renal) [µM] | TGI (SNB-19 CNS) [µM] | TGI (SNB-75 CNS) [µM] | TGI (UACC-257 melanoma) [µM] | GI50 (HOP-62 NSCLC) [µM] | GI50 (HOP-92 NSCLC) [µM] | GI50 (KM12 colon) [µM] | GI50 (OVCAR-3 ovarian) [µM] | GI50 (OVCAR-5 ovarian) [µM] | GI50 (SN12C renal) [µM] | GI50 (SNB-19 CNS) [µM] | GI50 (SNB-75 CNS) [µM] | GI50 (UACC-257 melanoma) [µM]
O=c1ccc2nc3cc(Br)ccc3sc-2c1 | > 100 | > 100 | > 100 | > 100 | > 100 | > 100 | > 100 | > 100 | > 100 | > 100 | > 100 | – | – | – | – | – | – | – | – | –
O=C(CSc1nc2ccc([N+](=O)[O-])cc2s1)c1ccc2ccccc2c1 | > 100 | > 100 | > 100 | > 100 | > 100 | > 100 | > 100 | > 100 | > 100 | > 100 | > 100 | – | – | – | – | – | – | – | – | –
COc1cc2oc(=O)ccc2cc1C(=O)CC(C)C | > 100 | > 100 | > 100 | > 100 | > 100 | > 100 | > 100 | > 100 | > 100 | > 100 | > 100 | – | – | – | – | – | – | – | – | –
CN(C)c1ccc(C=Nc2ccc(Oc3ccc(Cl)cc3)c(Cl)c2)cc1 | 51.8 | 36.1 | 29.6 | – | 34.2 | 32.4 | > 100 | 43.6 | 41.3 | 35.6 | 44.6 | – | – | – | – | – | – | – | – | –
CC(=O)OC1CC[C@@]2(C)C(=CC[C@@H]3[C@@H]2CC[C@]2(C)Nc4nn(S(C)(=O)=O)cc4C[C@@H]32)C1 (some centres undefined) | > 100 | > 100 | 25.4 | > 100 | 81.8 | 57.8 | > 100 | > 100 | > 100 | > 100 | – | – | – | – | – | – | – | – | – | –
Cn1cnc([N+](=O)[O-])c1Sc1nc(N)nc2c1ncn2C1OC(CO)C(O)C1O (centres undefined) | > 100 | > 100 | 33.6 | > 100 | 32.7 | > 43.4 | > 100 | > 100 | > 100 | > 84.9 | > 100 | – | – | – | – | – | – | – | – | –
Cn1c(=O)[nH]c2nncnc2c1=O | 181 | 71.2 | > 561 | > 519 | > 353 | 298 | > 625 | > 497 | 419 | 117 | 302 | – | – | – | – | – | – | – | – | –
OC(c1ccccc1)(c1ccccc1)c1nccc2ccccc12 | 43.2 | – | > 100 | – | > 100 | 52.5 | > 100 | > 100 | > 100 | – | > 100 | – | – | – | – | – | – | – | – | –
O=C(O)c1ccc(C(=O)c2ccccc2C(=O)O)cc1C(=O)O | > 100 | > 100 | > 100 | > 100 | > 100 | > 100 | > 100 | > 100 | > 100 | > 100 | > 100 | – | – | – | – | – | – | – | – | –
CC(C)(C)OC(=O)NC(CCCCNC(=O)OCc1ccccc1)C(=O)NCCNc1ccc(NCCNC(=O)C(CCCCNC(=O)OCc2ccccc2)NC(=O)OC(C)(C)C)c2c1C(=O)c1ccccc1C2=O (centres undefined) | > 74.3 | > 71.4 | > 100 | > 100 | > 100 | > 100 | > 100 | > 100 | 45.9 | 70.4 | > 100 | – | – | – | – | – | – | – | – | –
COc1ccc(C(=O)C2=NON3OC23C(=O)c2ccc(OC)cc2)cc1 (centres undefined) | > 100 | 5.16 | 52.9 | 8.29 | 36.6 | 23.3 | 36.7 | 28.6 | 33.7 | 43.6 | 34.9 | – | – | – | – | – | – | – | – | –
Cc1coc2c1C[C@@]1(C)[C@H](CCC[C@@H]1C)[C@H]2O | 75.1 | 66.2 | > 100 | > 100 | > 100 | 57.8 | > 100 | 55.5 | > 100 | – | 88.3 | – | – | – | – | – | – | – | – | –
OCc1cn(C(c2ccccc2)(c2ccccc2)c2ccccc2)cn1 | > 100 | > 100 | > 100 | > 100 | – | > 100 | > 100 | > 100 | > 100 | 68.5 | > 100 | – | – | – | – | – | – | – | – | –
COc1nc2[nH]ccc2c(=O)[nH]1 | – | > 100 | > 100 | > 100 | > 100 | – | > 100 | > 100 | > 100 | > 100 | > 100 | – | – | – | – | – | – | – | – | –
N#CC12Cc3cc4c(cc3-c3cccc(c31)CCN2C(=O)c1ccccc1)OCO4 (centres undefined) | > 100 | 89.5 | > 100 | > 100 | > 100 | > 100 | > 100 | > 100 | > 100 | 62.8 | > 100 | – | – | – | – | – | – | – | – | –
COCC1CCCN1c1ccc(C=N/C(C#N)=C(\N)C#N)cc1 (centres undefined) | > 100 | 46 | – | – | > 100 | > 100 | > 100 | 84.5 | > 100 | 58.1 | > 100 | 43.6 | 14.3 | > 100 | 46.1 | > 100 | 4.85 | 36.7 | 23.2 | > 100
